# PMC6811539, “Minute-scale persistence of a GPCR conformation state triggered by non-cognate G protein interactions primes signaling” (Nature Communications, 2019)
# Tests used:
# β2-AR-mCer = target: T1, β2-AR-mCer (Homo sapiens, UniProt P07550); test: competition pull-down assay, displacement of PC-Qp (fragments) from β2-AR-mCer membranes; assay type: binding; details: PC-Qp 50 μM; thirty seconds after UV irradiation
# T1 construct: expressed in transfected cells; host or cells: native membranes of transiently transfected HEK293T cells
# Description: Native membranes were prepared from cells expressing β2-mCer and were stored in sucrose-supplemented buffer A as described above (Membrane preparations). Membranes were sonicated (3× bursts, 15 s with 1 min pauses) and resuspended in ΔFRET buffer minus Ca^2+ to a concentration of 10 nM receptor based on fluorescence counts. bioQp (30 μM)/30 μM bioQp + 30 μM Qp/30 μM bioQp + 50 μM Qp, and 100 μM isoproterenol were added and mixed for 5 min. Samples were split into duplicates, one of which was not manipulated in any way to obtain the total receptor counts. To the other tube, 20 μl of 0.4 mg/ml streptavidin-coated magnetic beads were added, mixed, and precipitated using a Neodymium disc magnet N52 (20 × 40 mm). Supernatant was removed to a fresh micro-centrifuge tube to monitor fluorescence of receptors not bound to the beads. Percentage of receptors bound to the beads was calculated by subtracting the unbound from the total (duplicate). The experiment was repeated with UV exposure for 2 min, followed by the addition and pulldown using the magnetic beads.
# [1] = extent of photocleavage of PC-Qp by MALDI-MS; assay type: physicochemical; parameters: Conc. App: unit: μM; details: for concentration of full-length PC-Qp: 50 μM input, native membranes, MALDI-MS, mean of three experiments; for Conc. App: PC-Qp full length; for PC-Qp full length (fraction, MALDI-MS): plus UV (350 nm, 2 min)
# Description: Native membranes were prepared from cells expressing β2-mCer and were stored in sucrose-supplemented buffer A as described above (Membrane preparations). […]. Both samples were centrifuged 100,000 × g, 5 min, 4 °C to sediment the membrane. Supernatants were stored on ice for analysis by MS. Control samples containing 50 μM peptide in the buffer were also prepared.
# Prior to matrix-assisted laser desorption and ionization time-of-flight MS (MALDI-TOF MS) analysis, the samples were desalted using C18 ZipTips (Millipore Corporation, Billerica, MA). The manufacturer’s standard protocol for peptide clean-up was followed. After elution from the ZipTip, 1 μL of each sample was spotted on a MALDI-TOF 384 spot stainless-steel target (Bruker Daltonics, Billerica, MA) and mixed with 1 μl of α-cyano-4-hydroxy-cinnamic acid (α-CHCA) matrix (15 mg/ml α-CHCA in 50% acetonitrile). Each spot was allowed to dry at room temperature. The target was placed in a Bruker Autoflex Speed MALDI-TOF mass spectrometer (Bruker Daltonics, Billerica, MA) equipped with a Nd-YAG 355 nm pulsed laser. The data were collected in reflectron mode, positive polarity, with an accelerating potential of 19 kV. Each spectrum was the accumulation of 4000 laser shots with complete spot raster of the laser during data collection. External calibration was performed using 0.5 μl α-CHCA and 0.5 μl of peptide standard (part# 206195, Bruker Daltonics, Billerica, MA) with Angiotensin II (monoisotopic mass [MH^+ ] 1046.5418), Angiotensin I (monoisotopic mass [MH^+ ] 1296.6848), SubstanceP (monoisotopic mass [MH^+] 1347.7354), Bombesin (monoisotopic mass [MH^+] 1619.8223), ACTH clip 1–17 (monoisotopic mass [MH^+] 2093.0862), ACTH clip 18–39 (monoisotopic mass [MH^+] 2465.1983), and Somatostatin 28 (monoisotopic mass [MH^+] 3147.4710). The Bruker data files were converted to mzXML files using MSConvertGUI tool in ProteoWizard open-source software. The mzXML files were viewed and analyzed with mMass v5.5 open-source software.
# [2] = +UV (second block), replicate #1
# [3] = +UV (second block), replicate #2
# [4] = +UV (second block), replicate #3
# [5] = −UV (first block), replicate #1
# [6] = −UV (first block), replicate #2
# [7] = −UV (first block), replicate #3
substance,measurement,setting,value
"DTENIRFVFAAVKDTILQLNLKE(Anp)NLV [PC-Qp, photocleavable Qp, Y356 replaced by Anp]",competition with bioQp for receptor binding,β2-AR-mCer,no longer competes with bioQp for interaction with the receptor
same,concentration of full-length PC-Qp,"[1]; +UV (350 nm, 2 min)",4.582 µM
same,% cleavage,[1]; [2],90.1408%
same,% uncleaved,[1]; [2],9.859%
same,% cleavage,[1]; [3],90.4762%
same,% uncleaved,[1]; [3],9.524%
same,% cleavage,[1]; [4],91.8919%
same,% uncleaved,[1]; [4],8.108%
same,Conc. App,[1]; [2],4.93
same,Conc. App,[1]; [3],4.7619
same,Conc. App,[1]; [4],4.054
same,Conc. App,[1]; [5],33.3333
same,Conc. App,[1]; [6],37.7551
same,Conc. App,[1]; [7],30.7692
same,"PC-Qp full length (fraction, MALDI-MS)",[1]; replicate 1,0.098
same,"PC-Qp full length (fraction, MALDI-MS)",[1]; replicate 2,0.095
same,"PC-Qp full length (fraction, MALDI-MS)",[1]; replicate 3,0.081
same,% cleavage,[1]; [5],33.3333%
same,% uncleaved,[1]; [5],66.6667%
same,% cleavage,[1]; [6],24.4898%
same,% uncleaved,[1]; [6],75.5102%
same,% cleavage,[1]; [7],38.4615%
same,% uncleaved,[1]; [7],61.5385%
same,concentration of full-length PC-Qp,[1]; −UV,33.9526 µM
